Measurements published in ChEMBL document CHEMBL1150039, “Dual inhibition of neutral endopeptidase and angiotensin-converting enzyme by N-phosphonomethyl and N-carboxyalkyl dipeptides” (Bioorg Med Chem Lett, 1994).

Assays:
[1] = target: Angiotensin-converting enzyme (Homo sapiens, UniProt P12821); assay: In vitro inhibitory concentration against angiotensin-converting enzyme; format: protein assay
Neprilysin = Neprilysin (Homo sapiens, UniProt P08473); assay: In vitro inhibitory concentration against neutral endopeptidase
Sequence of Neprilysin (P08473 whole entry): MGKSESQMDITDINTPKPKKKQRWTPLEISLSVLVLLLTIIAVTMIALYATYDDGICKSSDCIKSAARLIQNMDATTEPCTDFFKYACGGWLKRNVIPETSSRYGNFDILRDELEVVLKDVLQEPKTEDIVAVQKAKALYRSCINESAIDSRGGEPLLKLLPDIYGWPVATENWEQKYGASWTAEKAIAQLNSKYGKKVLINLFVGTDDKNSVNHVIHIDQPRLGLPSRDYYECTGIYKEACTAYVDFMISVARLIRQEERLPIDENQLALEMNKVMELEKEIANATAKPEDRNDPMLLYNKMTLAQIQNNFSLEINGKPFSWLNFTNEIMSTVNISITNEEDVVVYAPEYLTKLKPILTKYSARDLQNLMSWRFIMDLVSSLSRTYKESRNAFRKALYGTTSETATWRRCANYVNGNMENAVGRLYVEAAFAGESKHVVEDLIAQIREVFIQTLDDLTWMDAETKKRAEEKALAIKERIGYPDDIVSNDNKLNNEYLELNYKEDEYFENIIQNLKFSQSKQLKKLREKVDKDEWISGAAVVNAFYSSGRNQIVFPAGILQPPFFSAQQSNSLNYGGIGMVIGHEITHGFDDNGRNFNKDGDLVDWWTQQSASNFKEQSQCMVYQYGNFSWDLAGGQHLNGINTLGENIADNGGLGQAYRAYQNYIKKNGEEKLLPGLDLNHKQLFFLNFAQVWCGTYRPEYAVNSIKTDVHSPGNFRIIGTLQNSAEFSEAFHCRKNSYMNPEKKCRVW

Sequence of Angiotensin-converting enzyme (P12821 whole entry): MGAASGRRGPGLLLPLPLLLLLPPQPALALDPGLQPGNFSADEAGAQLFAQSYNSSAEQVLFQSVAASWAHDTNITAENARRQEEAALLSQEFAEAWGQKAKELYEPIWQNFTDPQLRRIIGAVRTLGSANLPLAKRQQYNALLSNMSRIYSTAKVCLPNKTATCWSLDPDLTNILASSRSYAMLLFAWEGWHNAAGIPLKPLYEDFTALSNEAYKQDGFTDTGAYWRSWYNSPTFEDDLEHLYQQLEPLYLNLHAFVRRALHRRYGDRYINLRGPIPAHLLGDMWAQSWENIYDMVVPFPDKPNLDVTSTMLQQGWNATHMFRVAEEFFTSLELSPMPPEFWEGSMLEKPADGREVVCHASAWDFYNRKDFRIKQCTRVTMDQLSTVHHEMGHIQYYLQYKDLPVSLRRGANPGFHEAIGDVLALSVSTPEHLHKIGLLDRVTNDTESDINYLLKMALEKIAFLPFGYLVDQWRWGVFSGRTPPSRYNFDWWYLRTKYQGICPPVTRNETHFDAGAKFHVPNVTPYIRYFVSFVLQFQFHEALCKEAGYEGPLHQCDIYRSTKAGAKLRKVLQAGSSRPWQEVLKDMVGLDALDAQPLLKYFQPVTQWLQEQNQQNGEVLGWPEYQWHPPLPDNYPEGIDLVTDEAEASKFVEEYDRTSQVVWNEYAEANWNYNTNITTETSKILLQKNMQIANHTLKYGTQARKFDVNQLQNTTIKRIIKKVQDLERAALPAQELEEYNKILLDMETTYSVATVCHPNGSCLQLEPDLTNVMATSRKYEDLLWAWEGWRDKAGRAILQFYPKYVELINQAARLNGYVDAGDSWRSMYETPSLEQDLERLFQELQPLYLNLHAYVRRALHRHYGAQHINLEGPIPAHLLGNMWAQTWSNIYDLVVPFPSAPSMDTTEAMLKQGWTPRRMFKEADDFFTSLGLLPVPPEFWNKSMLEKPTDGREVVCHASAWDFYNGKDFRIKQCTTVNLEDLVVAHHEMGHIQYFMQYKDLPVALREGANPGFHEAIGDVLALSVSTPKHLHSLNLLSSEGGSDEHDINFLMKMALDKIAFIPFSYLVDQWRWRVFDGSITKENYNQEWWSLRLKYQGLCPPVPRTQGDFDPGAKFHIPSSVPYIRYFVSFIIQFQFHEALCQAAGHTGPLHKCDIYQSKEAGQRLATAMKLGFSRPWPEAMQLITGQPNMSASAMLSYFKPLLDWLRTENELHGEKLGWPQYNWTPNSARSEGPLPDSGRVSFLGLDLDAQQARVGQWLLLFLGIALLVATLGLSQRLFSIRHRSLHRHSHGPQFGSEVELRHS

SMILES | IC50 [1] | IC50 (Neprilysin)
CC[C@H](C)C(NCC(=O)O)C(=O)N[C@@H](Cc1ccc(-c2ccccc2)cc1)C(=O)O (some centres undefined) | 65 nM | 200 nM
O=C(O)[C@H](Cc1ccc(-c2ccccc2)cc1)NC(=O)[C@H](Cc1ccc(-c2ccccc2)cc1)NCP(=O)(O)O | 414 nM | 20 nM
CC(C)Oc1ccc(C[C@H](NC(=O)[C@@H](NCP(=O)(O)O)C(C)C)C(=O)O)cc1 | 92 nM | 9 nM
O=C(O)[C@H](Cc1ccc(-c2ccccc2)cc1)NC(=O)[C@@H](NCP(=O)(O)O)C1CCCCC1 | > 1000 nM | 34 nM
CC(C)[C@H](NCP(=O)(O)O)C(=O)N[C@@H](Cc1ccc(-c2ccccc2)cc1)C(=O)N1C[C@H](O)C[C@H]1C(=O)O | > 1000 nM | 12 nM
C[C@H](OCc1ccccc1)[C@H](NCP(=O)(O)O)C(=O)N[C@@H](Cc1ccc(-c2ccccc2)cc1)C(=O)O | 656 nM | > 1000 nM
O=C(O)[C@H](Cc1ccc(-c2ccccc2)cc1)NC(=O)C1(NCP(=O)(O)O)CCCC1 | > 1000 nM | > 1000 nM
CC(C)[C@H](NCP(=O)(O)O)C(=O)N[C@@H](Cc1ccc(C2CCCCC2)cc1)C(=O)O | 122 nM | 35 nM
CC(C)[C@H](N[C@@H](C)C(=O)O)C(=O)N[C@@H](Cc1ccc(-c2ccccc2)cc1)C(=O)O | 23 nM | 735 nM
CC(C)[C@H](NCP(=O)(O)O)C(=O)N[C@@H](CCc1ccccc1)C(=O)O | 100 nM | 26 nM
CC(C)[C@H](NCP(=O)(O)O)C(=O)N[C@@H](Cc1c[nH]c2ccccc12)C(=O)O | 240 nM | 9 nM
CC[C@H](C)C(N[C@@H](C)C(=O)O)C(=O)N[C@@H](Cc1ccc(-c2ccccc2)cc1)C(=O)O (some centres undefined) | 22 nM | 165 nM
CC(C)[C@H](NCP(=O)(O)O)C(=O)N[C@@H](Cc1ccc(-c2ccccc2)cc1)C(=O)N[C@@H](Cc1ccc(O)cc1)C(=O)O | > 1000 nM | 4 nM
C[C@H](N[C@@H](Cc1ccccc1)C(=O)N[C@@H](Cc1ccc(-c2ccccc2)cc1)C(=O)O)P(=O)(O)O | 44 nM | 171 nM

Next, values leading:

IC50 [1] | IC50 (Neprilysin) | SMILES
53 nM | 282 nM | O=C(O)[C@H](Cc1ccc(-c2ccccc2)cc1)NC(=O)[C@H](Cc1ccc2ccccc2c1)NCP(=O)(O)O
660 nM | 1000 nM | C[C@H](NCP(=O)(O)O)C(=O)N[C@@H](Cc1ccc(-c2ccccc2)cc1)C(=O)O
> 1000 nM | > 1000 nM | O=C(O)[C@H](Cc1ccc(-c2ccccc2)cc1)NC(=O)[C@H](Cc1ccccc1O)NCP(=O)(O)O
138 nM | 47 nM | C[C@H](c1ccccc1)[C@H](NCP(=O)(O)O)C(=O)N[C@@H](Cc1ccc(-c2ccccc2)cc1)C(=O)O
> 1000 nM | 356 nM | CC(C)C[C@H](NCP(=O)(O)O)C(=O)N[C@@H](Cc1ccc(-c2ccccc2)cc1)C(=O)O
385 nM | 73 nM | O=C(O)[C@H](Cc1ccc(-c2ccccc2)cc1)NC(=O)[C@H](Cc1cccs1)NCP(=O)(O)O
117 nM | 35 nM | O=C(O)[C@H](Cc1ccc(-c2ccccc2)cc1)NC(=O)[C@H](Cc1ccccc1)NCP(=O)(O)O
665 nM | > 1000 nM | C[C@H](O)[C@H](NCP(=O)(O)O)C(=O)N[C@@H](Cc1ccc(-c2ccccc2)cc1)C(=O)O
> 1000 nM | > 1000 nM | CC(C)(C)[C@H](NCP(=O)(O)O)C(=O)N[C@@H](Cc1ccc(-c2ccccc2)cc1)C(=O)O
498 nM | 96 nM | Cc1ccccc1C[C@H](NCP(=O)(O)O)C(=O)N[C@@H](Cc1ccc(-c2ccccc2)cc1)C(=O)O
> 1000 nM | 226 nM | O=C(O)[C@H](Cc1ccc(-c2ccccc2)cc1)NC(=O)[C@H](Cc1ccc(O)cc1)NCP(=O)(O)O
50 nM | 2 nM | CC[C@@H](C)[C@H](NCP(=O)(O)O)C(=O)N[C@@H](Cc1ccc(-c2ccccc2)cc1)C(=O)O
> 1000 nM | > 1000 nM | O=C(O)[C@H](Cc1ccc(-c2ccccc2)cc1)NC(=O)[C@H](Cc1cnc[nH]1)NCP(=O)(O)O
473 nM | 338 nM | O=C(O)[C@H](Cc1ccc(-c2ccccc2)cc1)NC(=O)[C@H](Cc1ccc(Cl)cc1)NCP(=O)(O)O
160 nM | > 1000 nM | COc1ccccc1C[C@H](NCP(=O)(O)O)C(=O)N[C@@H](Cc1ccc(-c2ccccc2)cc1)C(=O)O
147 nM | 48 nM | O=C(O)[C@H](Cc1ccc(-c2ccccc2)cc1)NC(=O)[C@H](Cc1ccc2c(c1)OCO2)NCP(=O)(O)O
25 nM | 3 nM | CC(C)[C@H](NCP(=O)(O)O)C(=O)N[C@@H](Cc1ccc(-c2ccccc2)cc1)C(=O)O
731 nM | 37 nM | CCCC[C@H](NCP(=O)(O)O)C(=O)N[C@@H](Cc1ccc(-c2ccccc2)cc1)C(=O)O
